Patent US10047341B2, “Generation of keratinocytes from pluripotent stem cells and maintenance of keratinocyte cultures” (FUJIFILM Cellular Dynamics, Inc., priority 2014, dated 2018)
Entries after “also recorded” stand apart in the source; their conditions may differ.

Columns and labels:
[1] = test system: human ESC/iPSCs; test: iKCs derivation from human ESC/iPSCs: critical medium components; format: cell-based; details: for K14 expression with different fibroblast growth factors: anti-K14 immunofluorescence
[2] = test system: primary keratinocytes cultured in KCM4; format: cell-based, human; details: Passage 3 keratinocytes in KCM4, 1.5 mM Ca^2+ for 3 days
Method: Keratinocytes were cultured in KCM4 and at 80%-90% confluence, cells were either treated with 1.5 mM Ca^2+ for 3 days or fixed (no calcium control). Cells were assessed by immunocytochemistry for expression of differentiation markers Kl, Loricrin, and Filaggrin using polyclonal rabbit antibodies (Covance).

[3] = test system: primary human keratinocytes; test: Morphology analysis of primary keratinocytes; format: cell-based
[4] = test system: primary human keratinocytes; test: Long-term culture of primary keratinocytes (population doubling); details: for life span and stemness of primary keratinocytes in culture: niacinamide 3 mM, BMP4 0.5 ng/mL as components of KCM4; for keratinocyte growth: KCM1 with IGF or insulin 0-10 μg/mL
Method: Keratinocytes were maintained in the indicated medium and passaged every 4-5 days (at ˜80% confluence). For passage, keratinocytes were incubated with a 0.1% Trypsin in Versene solution at 37° C. for 5 minutes. The trypsin was neutralized with 0.5 mg/mL of trypsin inhibitor. The cells were centrifuged at 1200 rpm for 4 min. Cells were counted with a Cellometer (Nexcelom). Cells (25,000-50,000) were plated per well of 6-well plates in the indicated keratinocyte culture media. Media was changed every other day.
Cells were maintained by serial passage at ˜80% confluence until senescence. The total number of cell doublings for each passage was calculated using the following formula: 3.32 log(N/No). Where No refers to the number of cells plated at the beginning of each passage and N is the number of cells recovered at the end of each passage.

[5] = test system: primary human keratinocytes; test: Colony formation assay (CFA) of primary keratinocytes; format: cell-based; details: for performance in CFA: KCM1 supplemented with either IGF or insulin, CFA in KCM1 (10 μg/mL insulin), 12 days
Method: Cells were plated at low density (250 cells/well of a 6-well plate) and allowed to grow for 8-12 days. For FIGS. 7 and 8, cells were switched from the indicated culture medium to KCM1 (10 μg/mL insulin) at the beginning of the CFA. Keratinocytes were cultured in KCM1 (10 μg/mL insulin) for 12 days and colony size was measured. For FIGS. 9, 10, and 12, the CFAs were performed with the medium used for maintaining the keratinocytes. KCM4 needed to be supplemented with 5 μg/mL insulin to support colony growth. Colonies were allowed to grow for 8 days and colony size was measured. Following culture, plates were fixed and stained with Hoechst stain. The whole plate was imaged at 40× with an ImageXpress high content imager (Molecular Devices). The total number of colonies per well was counted and the size of each colony was measured using ImageJ software. Colony counts are shown in bar graphs where bar height represents the average number of colonies/well for each passage and the error bars represent the standard deviation. Colony sizes are presented in box and whisker plots where the center line represents the median, the box represents the inter-quartile range and the whiskers represent the 5-95 percentile. Data that fall outside this range are plotted individually.

[6] = Passage 0, Day 14 differentiation culture, phase-contrast
[7] = Passage 0, Day 14 differentiation culture
[8] = KCM1, IGF and low concentrations of insulin (0.05 μg/mL and 0 μg/mL)

With `Cc1cccc(-c2[nH]ncc2-c2ccc3ncccc3n2)n1` [TGFRKi, TGFβ RI Kinase Inhibitor II, reference compound] the “iKCs derivation when component is left out of the media” value [1, 6] was “iKCs cannot be derived efficiently”.

For `[Ca+2]` [calcium], the “expression of differentiation markers Keratin 1, Loricrin, and Filaggrin” value [2] was “Expression of all three differentiation markers was detected” and the “differentiation at too high medium level of component” value ([1]; 1 mM) was “simple epithelial progenitors would not further differentiate into keratinocytes”.

In the case of `NC(=O)c1cccnc1` [niacinamide, reference compound], the cell size ([3]; primary keratinocytes cultured in the indicated medium) is reported as “made the cells smaller”, the “differentiation when concentration of component is not sufficient” value [1, 6] is reported as “the differentiation process was incomplete” and the “life span and stemness of primary keratinocytes in culture” value [4] is reported as “maintained the stemness of primary keratinocyte stem cells in culture”. The “life span and stemness of primary keratinocytes in culture” value ([4]; listed as Niacinamide) was “extend the life span of primary keratinocytes in culture”.

For “EGF: epidermal growth factor (NSDSECPLSHDGYCLHDGVCMYIEALDKYACNCVVGYIGERCQYRDLKWWELR; UniProt P01133 971-1023, looked up)”, the “differentiation when concentration of component is not sufficient” value [1, 6] was “the differentiation process was incomplete”.

With FGF1: acidic fibroblast growth factor the “K14 expression with different fibroblast growth factors” value [1, 7] was “efficiently direct cells to express mature keratinocyte marker K14”.

In the case of FGF2: fibroblast growth factor FGF2, the “K14 expression with different fibroblast growth factors” value [1, 7] is reported as “did not promote homogeneous K14 expression”.

For “IGF: IGF1 growth factor, medium supplement (10 ng/mL)”, the “performance in CFA” value [5] was “performed similarly”, the “morphology at later passages (p6)” value [3, 8] was “smaller and appear to be more tightly attached to each other” and the keratinocyte growth [4] was “support human neonatal foreskin primary keratinocyte growth”.

VEGF was tested, and the “effect in CFA in later passages” value ([5]; VEGF 25 ng/mL added to KCM4) was “Positive effect”, the “morphology after addition of VEGF” value ([3]; VEGF 25 ng/mL added to KCM4) was “did not show any morphological differences” and the “proliferative potential in long-term culture” value ([4]; VEGF 25 ng/mL added to KCM4) was “increase the proliferative potential of keratinocytes; also recorded: increased the proliferative potential of primary keratinocytes”.

For “insulin: insulin, medium supplement (0-10 μg/mL)”, the “performance in CFA” value [5] was “performed similarly”, the “morphology at later passages (p6)” value [3, 8] was “smaller and appear to be more tightly attached to each other” and the “morphology at later passages (p6)” value ([3]; KCM1, high concentrations of insulin (1 μg/mL and higher)) was “many larger, differentiated cells”. For the same molecule, the keratinocyte growth [4] was “grew well at all concentrations” and the keratinocyte growth ([4]; listed as Insulin) was “support human neonatal foreskin primary keratinocyte growth”.
